Source: patent US6479502B1, “Hydroxamic acid derivatives as proteinase inhibitors” (British Biotech Pharmaceuticals, priority 1998, dated 2002)

Assays:
[1] = target: T1, gelatinase A (Homo sapiens, UniProt P08253); assay: Inhibition of gelatinase A (72 kDa gelatinase); assay type: biochemical; details: statement in words, no value given
T1 construct: endogenous in cells; host or cells: RPMI-7951 cells (endogenous enzyme, purified by gelatin-agarose chromatography)
T1 sequence (P08253 110-660): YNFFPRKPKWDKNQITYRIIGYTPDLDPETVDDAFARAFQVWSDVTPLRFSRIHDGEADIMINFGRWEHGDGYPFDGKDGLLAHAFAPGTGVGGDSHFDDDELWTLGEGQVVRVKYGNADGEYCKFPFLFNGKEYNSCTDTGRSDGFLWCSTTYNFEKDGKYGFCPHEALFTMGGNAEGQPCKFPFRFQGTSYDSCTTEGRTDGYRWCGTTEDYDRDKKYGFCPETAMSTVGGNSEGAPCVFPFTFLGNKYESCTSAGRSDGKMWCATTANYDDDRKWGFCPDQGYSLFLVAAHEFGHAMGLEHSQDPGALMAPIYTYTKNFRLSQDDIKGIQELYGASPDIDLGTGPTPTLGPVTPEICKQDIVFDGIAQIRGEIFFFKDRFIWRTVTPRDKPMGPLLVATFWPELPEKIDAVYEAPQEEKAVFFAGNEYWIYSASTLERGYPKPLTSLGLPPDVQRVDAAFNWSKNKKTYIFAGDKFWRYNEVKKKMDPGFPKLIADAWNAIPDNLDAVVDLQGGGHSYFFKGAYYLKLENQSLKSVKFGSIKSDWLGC
Experimental: The potency of compounds of the invention as inhibitors of 72 kDa gelatinase may be determined by a procedure based on the method of Sellers et. al, Biochem. J., 171, 493-496 (1979). 72 kDa gelatinase, derived from RPMI-7951 cells is purified by gelatin-agarose chromatography. The enzyme is activated by incubation with aminophenyl mercuric acetate and approximately 0.05 units is incubated with 50μg [^14C]-radiolabellet gelatin in an appropriate buffer for 16 hours at 37° C. At the end of the incubation 50μg bovine serum albumin, together with trichloroacetic acid (final concentration 16%) are added to stop the reaction and to precipitate any undegraded substrate. The reaction tubes are placed on ice for 15 minutes before centrifugation at 10,000g for 15 minutes to sediment the precipitated substrate. A 200μl aliquot of the reaction supernatant is removed and the radioactivity determined by liquid scintillation counting. The effect of the inhibitors is determined by reference to a dose response curve. The IC50 (the concentration of inhibitor required to cause a 50% decrease in enzyme activity) is obtained by fitting a curve to the data and computing the concentration of inhibitor required to achieve 50% inhibition of the enzyme. For each IC50 determination, the effect on gelatinase activity of at least 8 concentrations of the inhibitor are examined. […]

[2] = target: collagenase-3 (MMP-13) (Homo sapiens, UniProt P45452); assay: Inhibition of collagenase-3 (MMP-13); assay type: biochemical; details: statement in words, no value given
Experimental: The potency of compounds of the invention as inhibitors of collagenase may be determined by the procedure of Cawston and Barrett, (Anal. Biochem., 99, 340-345, 1979), whereby a 1mM solution of the compound being tested, or a dilution thereof, is incubated at 37° for 16 hours with collagen and collagenase (buffered with 25mM Hepes, pH 7.5 containing 5mM CaCl2, 0.05% Brij 35 and 0.02% NaN3). The collagen is acetylated ^14C collagen prepared by the method of Cawston and Murphy, (Methods in Enzymology, 80, 711, 1981). The samples are centrifuged to sediment undigested collagen, and an aliquot of the radioactive supernatant removed for assay on a scintillation counter as a measure of hydrolysis. The collagenase activity in the presence of 1mM of the test compound, or a dilution thereof, is compared to activity in a control devoid of inhibitor and the result reported as that of inhibitor concentration effecting 50% inhibition of the collagenase activity (IC50). The potency of compounds of the invention as inhibitors of stromelysin may be determined by the procedure of Cawston et al, (Biochem. J., 195, 159-165, 1981), whereby a 1mM solution of the compound being tested, or a dilution thereof, is incubated at 37° for 16 hours with stromelysin and ^14C acetylate casein (buffered with 25mM Hepes, pH 7.5 containing 5mM CaCl2, 0.05% Brij 35 and 0.02% NaN3). […]

SMILES	inhibitor of gelatinase A [1]	inhibitor of collagenase-3 (MMP-13) [2]
O=C(CC(Cc1ccccc1)S(=O)(=O)N1CCC(Cc2ccccc2)CC1)NO (centres unmarked) [Example 2, 3-(4-Benzyl-piperidine-1-sulfonyl)-N-Hydroxy-4-phenyl-butyramide]	inhibitor of gelatinase A	–
O=C(CC(Cc1ccccc1)S(=O)(=O)N1CCC(COc2ccc(F)cc2)CC1)NO (centres unmarked) [Example 6, 3-[4-(4-Fluoro-phenoxymethyl)-piperidine-1-sulfonyl]-N-hydroxy-4-phenyl-butyramide]	–	inhibitor of collagenase-3 (MMP-13)
